Source: patent US20250320274A1, “RECOMBINANT HUMAN COLLAGEN AND METHOD FOR BUILDING SAME” (NANTONG UNIVERSITY, priority 2020, published 2025)
No end group written: not given here.

Assay: water solubility test
Assay type: physicochemical
Conditions: 32 mg in 8 ml of water, directly without stirring

Sequence: GPAGARGNDGATGAAGPPGPTGPAGPPGFP
- water solubility: clear solution with no color, no precipitation, and no floating matter
